In article PMC3880798 (Clinical cancer research : an official journal of the …, 2013):

Assays:
[1] = test system: pelvic or hepatic lesions; assay: DCE-MRI functional imaging; assay type: in vivo, human
[2] = in vivo
[3] = Plasma pharmacokinetics of OSI-930; assay type: in vivo, human; settings: for AUC / Cmax / concentration at 22 day / half-life / Tmax: human, plasma, oral, day 22, steady state; for AUC: AUCtau; for concentration at 22 day: Cmin
[4] = 50 mg, 50 mg once a day (n = 1)
[5] = 100 mg, 100 mg once a day (n = 1)
[6] = 200 mg, 200 mg once a day (n = 1)
[7] = 400 mg, 400 mg once a day (n = 2)
[8] = 400 mg, 400 mg twice a day (n = 6)
[9] = 500 mg, 500 mg twice a day (n = 21)
[10] = 600 mg, 600 mg twice a day (n = 6)
[11] = 800 mg, 800 mg once a day (n = 2)

In the case of `O=C(Nc1ccc(OC(F)(F)F)cc1)c1sccc1NCc1ccnc2ccccc12` [OSI-930], the “Decreases of IAUC and AUC from baseline values” ([1]; 4 responding patients, 500 mg twice a day) is reported as −4% to −78%, the “Decrease in Ktrans and Ve” value ([1]; day 22, 4 of 6 patients with non-GIST tumors) is reported as > 40% and the “Cases of grade 2 proteinuria” value ([2]; human) is reported as 1 case. The “Grade 3 hypertension (number)” value ([2]; human) was 1, the “Patients requiring a dose modification” value ([2]; human) was 33 patients and the “Patients who developed grade 1 to 2 PPE” value ([2]; human) was 15%. The “Patients with adverse events considered related to OSI-930” value ([2]; human) was 58%, the “Patients with anorexia (reported adverse events)” value ([2]; human) was 6 and the “Patients with at least 1 grade 3 adverse event of any cause” value ([2]; human) was 50%. For the same molecule, the “Patients with fatigue (reported adverse events)” value ([2]; human) was 8, the “Patients with grade 1 to 2 drug-related fatigue” value ([2]; human) was 3 patients and the “Patients with grade 1 to 2 drug-related nausea and anorexia” value ([2]; human) was 2 patients. For the same molecule, the “Patients with grade 3 PPE” value ([2]; human) was 1 patient, the “Patients with nausea (reported adverse events)” value ([2]; human) was 5 and the “Patients with treatment discontinued for toxicity” value ([2]; human) was 1 patient. For the same molecule, the “Treatment-related adverse events greater than grade 2” value ([2]; human) was “no treatment-related adverse events greater than grade 2”, the Treatment-related fatigue ([2]; human) was 50% and the “Treatment-related grade 3 fatigue” value ([2]; human) was 6%. For the same molecule, the “Treatment-related grade 3 hypertension” value ([2]; human) was 6%, the “Treatment-related grade 3 nausea” value ([2]; human) was 6% and the “Treatment-related grade 3 skin toxicity” value ([2]; human) was 6%. The “Patients with grade 1 to 2 drug-related skin and subcutaneous disorders” value ([2]; human, sc) was 3 patients, the Reports of mucositis [2] was “no reports of mucositis” and the “Rate and extent of absorption, sieved (screened) vs micronized capsules” value ([3]; 400 mg twice a day cohort, 3 vs 4 patients, data not shown) was “similar”. The “Dose proportionality of exposure” value ([3]; 400 and 500 mg twice a day) was “dose proportional”, the “Dose proportionality of exposure” value ([3]; between 500 and 600 mg twice a day) was “greater than dose proportional” and the AUC [3, 4] was 2.59 µg·h/mL. The Cmax [3, 4] was 0.188 µg/mL, the concentration at 22 day [3, 4] was 0.0693 µg/mL and the half-life ([3]; 50 mg, T1/2, 50 mg once a day (n = 1)) was 12.6 h. The Tmax [3, 4] was 6 h, the AUC [3, 5] was 2.49 µg·h/mL and the Cmax [3, 5] was 0.228 µg/mL. It also gave a concentration at 22 day [3, 5] of 0.0615 µg/mL, a half-life ([3]; 100 mg, T1/2, 100 mg once a day (n = 1)) of 18.5 h and a Tmax [3, 5] of 4 h. For the same molecule, the AUC [3, 6] was 4.73 µg·h/mL, the Cmax [3, 6] was 0.463 µg/mL and the concentration at 22 day [3, 6] was 0.0779 µg/mL. It also gave a half-life ([3]; 200 mg, T1/2, 200 mg once a day (n = 1)) of 7.95 h, a Tmax [3, 6] of 6 h and an AUC [3, 7] of 10.7 µg·h/mL. For the same molecule, the AUC [3, 8] was 7.88 µg·h/mL, the Cmax [3, 7] was 0.873 µg/mL and the Cmax [3, 8] was 0.802 µg/mL. It also gave a concentration at 22 day [3, 7] of 0.306 µg/mL, a concentration at 22 day [3, 8] of 0.423 µg/mL and a half-life ([3]; 400 mg, T1/2, 400 mg once a day (n = 2)) of 13.8 h. It also gave a half-life ([3]; 400 mg, T1/2, 400 mg twice a day (n = 6)) of 4.07 h, a Tmax [3, 7] of 4 h and a Tmax [3, 8] of 6.1 h. It also gave an AUC [3, 9] of 5.76 µg·h/mL, a Cmax [3, 9] of 1.01 µg/mL and a concentration at 22 day [3, 9] of 0.547 µg/mL. For the same molecule, the half-life ([3]; 500 mg, T1/2, 500 mg twice a day (n = 21)) was 7.11 h, the Tmax [3, 9] was 3.6 h and the AUC [3, 10] was 11.9 µg·h/mL. For the same molecule, the Cmax [3, 10] was 2.03 µg/mL, the concentration at 22 day [3, 10] was 1.17 µg/mL and the half-life ([3]; 600 mg, T1/2, 600 mg twice a day (n = 6)) was 5.39 h. For the same molecule, the Tmax [3, 10] was 3.5 h, the AUC [3, 11] was 11.3 µg·h/mL and the Cmax [3, 11] was 0.984 µg/mL.
